Structures are written as SMILES.

Chain of TARP γ8 dependent AMPA receptor (GluA1o-g8 fusion channel) (P42261 other isoform, or with tags, fused parts or gaps): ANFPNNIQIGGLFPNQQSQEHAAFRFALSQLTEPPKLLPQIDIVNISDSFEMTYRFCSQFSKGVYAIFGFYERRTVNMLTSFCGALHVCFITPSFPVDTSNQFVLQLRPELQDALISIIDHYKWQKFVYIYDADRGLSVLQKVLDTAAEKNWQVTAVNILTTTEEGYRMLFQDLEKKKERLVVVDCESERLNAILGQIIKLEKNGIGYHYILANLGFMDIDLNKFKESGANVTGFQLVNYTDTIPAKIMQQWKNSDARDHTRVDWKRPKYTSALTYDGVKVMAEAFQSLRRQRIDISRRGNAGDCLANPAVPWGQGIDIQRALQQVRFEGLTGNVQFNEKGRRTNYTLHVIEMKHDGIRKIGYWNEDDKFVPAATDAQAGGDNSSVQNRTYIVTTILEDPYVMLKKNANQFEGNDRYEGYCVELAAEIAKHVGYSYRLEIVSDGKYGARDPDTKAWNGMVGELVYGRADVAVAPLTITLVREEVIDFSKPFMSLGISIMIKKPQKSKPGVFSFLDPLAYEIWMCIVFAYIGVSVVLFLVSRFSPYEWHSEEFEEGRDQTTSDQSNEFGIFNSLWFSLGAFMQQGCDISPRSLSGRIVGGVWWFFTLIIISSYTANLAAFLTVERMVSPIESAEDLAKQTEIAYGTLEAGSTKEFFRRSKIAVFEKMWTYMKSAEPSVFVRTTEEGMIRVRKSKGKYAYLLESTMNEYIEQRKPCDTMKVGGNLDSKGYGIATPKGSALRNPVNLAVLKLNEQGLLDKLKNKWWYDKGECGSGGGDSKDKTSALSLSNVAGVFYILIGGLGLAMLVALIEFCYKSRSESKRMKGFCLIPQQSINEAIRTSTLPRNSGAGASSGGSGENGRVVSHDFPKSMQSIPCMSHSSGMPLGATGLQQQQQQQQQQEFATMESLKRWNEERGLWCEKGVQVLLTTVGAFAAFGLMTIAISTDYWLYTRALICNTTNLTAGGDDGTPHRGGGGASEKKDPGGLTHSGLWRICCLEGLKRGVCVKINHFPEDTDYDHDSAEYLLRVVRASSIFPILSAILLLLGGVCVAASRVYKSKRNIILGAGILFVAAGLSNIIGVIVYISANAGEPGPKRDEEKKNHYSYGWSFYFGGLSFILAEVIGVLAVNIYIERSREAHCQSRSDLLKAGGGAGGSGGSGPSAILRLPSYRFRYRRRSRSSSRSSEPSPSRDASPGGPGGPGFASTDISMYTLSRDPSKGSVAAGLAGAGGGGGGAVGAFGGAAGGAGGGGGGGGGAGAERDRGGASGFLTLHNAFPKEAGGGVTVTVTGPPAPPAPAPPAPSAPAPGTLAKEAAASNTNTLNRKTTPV

For the assay, the target named is TARP γ8 dependent AMPA receptor (GluA1o-g8 fusion channel) (Homo sapiens (Human), UniProt P42261+Q8WXS5). As to the kind of experiment: Calcium flux assay (FLIPR), HEK293 cells expressing GRIA1o-CACNG8 fusion. The assay is classed as cell-based. The following applies: inhibition of calcium flux after 15 μM glutamate, read-out: GluR1-γ8 pIC50 (converted). In short, it runs like this:
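Stable HEK293 clone expressing GluA1o-γ8 fusion (1:1 stoichiometry), loaded with Calcium-5/6 dye plus test compound; glutamate-evoked fluorescence normalized to control wells. Concentration-response fitted to four-parameter logistic, midpoint taken as inhibitory potency.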
Background: A change in cytosolic calcium serves as a functional read-out for many receptors and channels.
`Cn1cc(-c2cccc(Cl)c2-c2ccc3[nH]c(=O)[nH]c3c2)cn1` [Example 173, 5-[2-Chloro-6-(1-methylpyrazol-4-yl)phenyl]-1,3-dihydrobenzimidazol-2-one]: the IC50 was 398 nM. The value for `O=c1[nH]c2ccc(-c3ccc(OC(F)(F)F)cc3Cl)cc2[nH]1` [Example 30, 5-[2-Chloro-4-(trifluoromethoxy)phenyl]-1,3-dihydrobenzimidazol-2-one] was 1580 nM. The same measure for `Cc1nnc(-c2cccc(-c3ccc4[nH]c(=O)[nH]c4c3)c2Cl)o1` [Example 191, 5-[2-Chloro-3-(5-methyl-1,3,4-oxadiazol-2-yl)phenyl]-1,3-dihydrobenzimidazol-2-one]: 2000 nM; for `O=c1[nH]c2ccc(-c3c(Cl)cccc3-c3ccc(F)cc3)cc2[nH]1` [Example 163, 5-[2-Chloro-6-(4-fluorophenyl)phenyl]-1,3-dihydrobenzimidazol-2-one]: 20 nM.

On to `N#CCc1cccc(Br)c1-c1ccc2[nH]c(=O)[nH]c2c1` [Example 132, 2-[3-Bromo-2-(2-oxo-1,3-dihydrobenzimidazol-5-yl)phenyl]acetonitrile], for which the IC50 was 31.6 nM. The value for `COc1cccc(OC(C)C)c1-c1ccc2[nH]c(=O)sc2c1` [Example 77, 6-(2-Isopropoxy-6-methoxy-phenyl)-3H-1,3-benzothiazol-2-one] was 12.6 nM; that for `Cc1c(CN2CCOC(C)C2)cccc1-c1ccc2[nH]c(=O)[nH]c2c1` (racemic) [Example 150, (±)-5-[2-Methyl-3-[(2-methylmorpholin-4-yl)methyl]phenyl]-1,3-dihydrobenzimidazol-2-one] was 200 nM; that for `CN(C)c1cccc(-c2ccc3[nH]c(=O)[nH]c3c2)c1Cl` [Example 189, 5-[2-Chloro-3-(dimethylamino)phenyl]-1,3-dihydrobenzimidazol-2-one] was 3980 nM.

In the case of `CC(C)(C#N)c1cccc(Cl)c1-c1ccc2[nH]c(=O)[nH]c2c1` [Example 127, 2-[3-Chloro-2-(2-oxo-1,3-dihydrobenzimidazol-5-yl)phenyl]-2-methyl-propanenitrile], the IC50 is 25.1 nM. The value for `Cc1noc(-c2cccc(-c3ccc4[nH]c(=O)sc4c3)c2C)n1` [Example 204, 6-[2-Methyl-3-(3-methyl-1,2,4-oxadiazol-5-yl)phenyl]-3H-1,3-benzothiazol-2-one] was 2510 nM. The value for `O=c1[nH]c2ccc(-c3c(Cl)cncc3Cl)cc2s1` [Example 134, 6-(3,5-Dichloro-4-pyridyl)-3H-1,3-benzothiazol-2-one] was 63.1 nM; that for `COc1cccc(OCc2ccccc2)c1-c1ccc2[nH]c(=O)[nH]c2c1` [Example 105, 5-(2-Benzyloxy-6-methoxy-phenyl)-1,3-dihydrobenzimidazol-2-one] was 39.8 nM; that for `COC(=O)c1ccc(Cl)c(-c2ccc3[nH]c(=O)[nH]c3c2)c1` [Example 44, Methyl 4-chloro-3-(2-oxo-1,3-dihydrobenzimidazol-5-yl)benzoate] was 316 nM. The same measure for `COC(=O)c1cccc(Cl)c1-c1ccc2[nH]c(=O)[nH]c2c1` [Example 42, Methyl 3-chloro-2-(2-oxo-1,3-dihydrobenzimidazol-5-yl)benzoate]: 501 nM; for `O=Cc1cccc(F)c1-c1ccc2[nH]c(=O)[nH]c2c1` [Example 27, 3-Fluoro-2-(2-oxo-1,3-dihydrobenzimidazol-5-yl)benzaldehyde]: 1580 nM; for `COc1cc(OC(F)(F)F)ccc1-c1ccc2[nH]c(=O)[nH]c2c1` [Example 33, 5-[2-Methoxy-4-(trifluoromethoxy)phenyl]-1,3-dihydrobenzimidazol-2-one]: 316 nM.

Take `N#Cc1cccc(-c2ccc3[nH]c(=O)[nH]c3c2)c1Cl` [Example 68, 2-Chloro-3-(2-oxo-1,3-dihydrobenzimidazol-5-yl)benzonitrile]: the IC50 is 316 nM. Regarding `O=c1[nH]c2ccc(-c3c(Cl)cccc3OCC3CC3(F)F)cc2[nH]1` (racemic) [Example 93, (±)-5-[2-Chloro-6-[(2,2-difluorocyclopropyl)methoxy]phenyl]-1,3-dihydrobenzimidazol-2-one], the IC50 is 20 nM. The value for `Cn1cc(-c2cccc(-c3ccc4[nH]c(=O)[nH]c4c3)c2Cl)cn1` [Example 185, 5-[2-Chloro-3-(1-methylpyrazol-4-yl)phenyl]-1,3-dihydrobenzimidazol-2-one] was 50.1 nM. The same measure for `COc1cncc(-c2cccc(Cl)c2-c2ccc3[nH]c(=O)[nH]c3c2)c1` [Example 168, 5-[2-Chloro-6-(5-methoxy-3-pyridyl)phenyl]-1,3-dihydrobenzimidazol-2-one]: 398 nM. Consider `O=C(c1ccc(Cl)c(-c2ccc3[nH]c(=O)[nH]c3c2)c1)N1CCCCC1` [Example 85, 5-[2-Chloro-5-(piperidine-1-carbonyl)phenyl]-1,3-dihydrobenzimidazol-2-one], for which the IC50 is 5010 nM. The same measure for `Cc1ccccc1-c1ccc2[nH]c(=O)[nH]c2c1` [Example 3, 5-(o-Tolyl)-1,3-dihydrobenzimidazol-2-one]: 1260 nM; for `CC(C#N)c1cccc(Cl)c1-c1ccc2[nH]c(=O)[nH]c2c1` (racemic) [Example 126, (±)-2-[3-Chloro-2-(2-oxo-1,3-dihydrobenzimidazol-5-yl)phenyl]propanenitrile]: 12.6 nM; for `COC(=O)c1cccc(-c2ccc3[nH]c(=O)[nH]c3c2)c1C` [Example 46, Methyl 2-methyl-3-(2-oxo-1,3-dihydrobenzimidazol-5-yl)benzoate]: 50.1 nM. The same measure for `Cc1c(CN2CC[C@H](O)[C@H](F)C2)cccc1-c1ccc2[nH]c(=O)[nH]c2c1` (stereo in doubt) [Example 159, (3R,4S)-5-[3-[[3-Fluoro-4-hydroxy-1-piperidyl]methyl]-2-methyl-phenyl]-1,3-dihydrobenzimidazol-2-one]: 6310 nM; for `Cc1c(C(=O)N2CCOCC2)cccc1-c1ccc2[nH]c(=O)[nH]c2c1` [Example 82, 5-[2-Methyl-3-(morpholine-4-carbonyl)phenyl]-1,3-dihydrobenzimidazol-2-one]: 5010 nM; for `Cc1c(-c2ccc3[nH]c(=O)[nH]c3c2)cccc1-c1noc(-c2ccncc2)n1` [Example 75, 5-[2-Methyl-3-[5-(4-pyridyl)-1,2,4-oxadiazol-3-yl]phenyl]-1,3-dihydrobenzimidazol-2-one]: 20 nM. Take `O=c1[nH]c2ccc(-c3c(Cl)cccc3OC3CC3)cc2[nH]1` [Example 90, 5-[2-Chloro-6-(cyclopropoxy)phenyl]-1,3-dihydrobenzimidazol-2-one]: the IC50 was 251 nM.

Regarding `O=c1[nH]c2ccc(-c3c(Cl)cccc3-c3cn[nH]c3)cc2[nH]1` [Example 176, 5-[2-Chloro-6-(1H-pyrazol-4-yl)phenyl]-1,3-dihydrobenzimidazol-2-one], the IC50 is 2000 nM.

With `O=c1[nH]c2ccc(-c3cccc(Cl)c3OC(F)(F)F)cc2[nH]1` [Example 29, 5-[3-Chloro-2-(trifluoromethoxy)phenyl]-1,3-dihydrobenzimidazol-2-one], the IC50 was 31.6 nM. The value for `O=c1[nH]c2ccc(-c3cccc(C(F)(F)F)c3Cl)cc2[nH]1` [Example 61, 5-[2-Chloro-3-(trifluoromethyl)phenyl]-1,3-dihydrobenzimidazol-2-one] was 39.8 nM.
